Key:
Experiment in all cases: relative viability (nuclei count vs DMSO), 5 days (fraction); higher = more cells survive
A-427 = tested on: A-427
Procedure, shortened: (§1)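 Cells from lung cancer lines were seeded into 1536-well plates and, one day later, dosed by pin tool. Treatments were either a single drug or a fixed dose of an anchor drug with five library-drug doses (not always all listed) in √10 steps. After 5 days, nuclei were stained in a one-step fixation (final 0.05% Triton X-100, 1% formaldehyde, 1 ug/ml Hoechst) and counted on 4× images, and relative viability is the treated-to-vehicle nuclei ratio, as the median of duplicate plates.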

ABC-1 = tested on: ABC-1
Procedure, shortened: as §1

EPLC-272H = tested on: EPLC-272H
Procedure, shortened: as §1

HCC-15 = tested on: HCC-15
Procedure, shortened: as §1

LC-2-ad = tested on: LC-2-ad
Procedure, shortened: as §1

LK-2 = tested on: LK-2
Procedure, shortened: as §1

NCI-H1734 = tested on: NCI-H1734
Procedure, shortened: as §1

NCI-H1793 = tested on: NCI-H1793
Procedure, shortened: as §1

NCI-H1915 = tested on: NCI-H1915
Procedure, shortened: as §1

NCI-H1944 = tested on: NCI-H1944
Procedure, shortened: as §1

NCI-H2009 = tested on: NCI-H2009
Procedure, shortened: as §1

NCI-H2023 = tested on: NCI-H2023
Procedure, shortened: as §1

NCI-H2342 = tested on: NCI-H2342
Procedure, shortened: as §1

NCI-H2347 = tested on: NCI-H2347
Procedure, shortened: as §1

NCI-H322M = tested on: NCI-H322M
Procedure, shortened: as §1

NCI-H358 = tested on: NCI-H358
Procedure, shortened: as §1

NCI-H441 = tested on: NCI-H441
Procedure, shortened: as §1

NCI-H522 = tested on: NCI-H522
Procedure, shortened: as §1

NCI-H647 = tested on: NCI-H647
Procedure, shortened: as §1

NCI-H838 = tested on: NCI-H838
Procedure, shortened: as §1

RERF-LC-KJ = tested on: RERF-LC-KJ
Procedure, shortened: as §1

SW 1573 = tested on: SW 1573
Procedure, shortened: as §1

UMC-11 = tested on: UMC-11
Procedure, shortened: as §1

In the case of Cc1csc(=NC2CCCCC2)n1/N=C/c1ccc(O)c(O)c1O [MIM1] + Cc1nc(Nc2ncc(C(=O)Nc3c(C)cccc3Cl)s2)cc(N2CCN(CCO)CC2)n1 [Dasatinib] (partner 0.075 µM), the relative viability (A-427; first compound 0.2 µM) is reported as 0.664, the relative viability (A-427; first compound 2 µM) is reported as 0.716 and the relative viability (A-427; first compound 6.325 µM) is reported as 0.573. For the same compound, the relative viability (A-427; first compound 20 µM) was 0.178, the relative viability (ABC-1; first compound 0.2 µM) was 0.598 and the relative viability (ABC-1; first compound 0.6325 µM) was 0.555. The relative viability (ABC-1; first compound 2 µM) was 0.543, the relative viability (ABC-1; first compound 6.325 µM) was 0.299 and the relative viability (ABC-1; first compound 20 µM) was 0.248. For the same compound, the relative viability (EPLC-272H; first compound 0.2 µM) was 0.406, the relative viability (EPLC-272H; first compound 0.6325 µM) was 0.305 and the relative viability (EPLC-272H; first compound 2 µM) was 0.328. For the same compound, the relative viability (EPLC-272H; first compound 6.325 µM) was 0.312, the relative viability (EPLC-272H; first compound 20 µM) was 0.0989 and the relative viability (HCC-15; first compound 0.2 µM) was 0.635. The relative viability (HCC-15; first compound 2 µM) was 0.57, the relative viability (HCC-15; first compound 6.325 µM) was 0.359 and the relative viability (HCC-15; first compound 20 µM) was 0.101. The relative viability (LC-2-ad; first compound 0.2 µM) was 0.834, the relative viability (LC-2-ad; first compound 0.6325 µM) was 0.413 and the relative viability (LC-2-ad; first compound 2 µM) was 0.527. It also gave a relative viability (LC-2-ad; first compound 6.325 µM) of 0.411, a relative viability (LC-2-ad; first compound 20 µM) of 0.142 and a relative viability (LK-2; first compound 0.2 µM) of 0.358. The relative viability (LK-2; first compound 2 µM) was 0.202, the relative viability (LK-2; first compound 6.325 µM) was 0.269 and the relative viability (LK-2; first compound 20 µM) was 0.176. For the same compound, the relative viability (NCI-H1734; first compound 0.2 µM) was 0.453, the relative viability (NCI-H1734; first compound 0.6325 µM) was 0.446 and the relative viability (NCI-H1734; first compound 2 µM) was 0.487. It also gave a relative viability (NCI-H1734; first compound 6.325 µM) of 0.386, a relative viability (NCI-H1734; first compound 20 µM) of 0.161 and a relative viability (NCI-H1793; first compound 0.2 µM) of 0.417. It also gave a relative viability (NCI-H1793; first compound 2 µM) of 0.372, a relative viability (NCI-H1793; first compound 6.325 µM) of 0.359 and a relative viability (NCI-H1793; first compound 20 µM) of 0.31. It also gave a relative viability (NCI-H1915; first compound 0.2 µM) of 0.354, a relative viability (NCI-H1915; first compound 0.6325 µM) of 0.293 and a relative viability (NCI-H1915; first compound 2 µM) of 0.325. For the same compound, the relative viability (NCI-H1915; first compound 6.325 µM) was 0.269, the relative viability (NCI-H1915; first compound 20 µM) was 0.187 and the relative viability (NCI-H1944; first compound 0.2 µM) was 0.214. The relative viability (NCI-H1944; first compound 0.6325 µM) was 0.204, the relative viability (NCI-H1944; first compound 2 µM) was 0.21 and the relative viability (NCI-H1944; first compound 6.325 µM) was 0.191. The relative viability (NCI-H1944; first compound 20 µM) was 0.176, the relative viability (NCI-H2009; first compound 0.2 µM) was 0.303 and the relative viability (NCI-H2009; first compound 0.6325 µM) was 0.327. It also gave a relative viability (NCI-H2009; first compound 2 µM) of 0.293, a relative viability (NCI-H2009; first compound 6.325 µM) of 0.204 and a relative viability (NCI-H2009; first compound 20 µM) of 0.123. For the same compound, the relative viability (NCI-H2023; first compound 0.2 µM) was 0.519, the relative viability (NCI-H2023; first compound 0.6325 µM) was 0.719 and the relative viability (NCI-H2023; first compound 2 µM) was 0.435. It also gave a relative viability (NCI-H2023; first compound 6.325 µM) of 0.249, a relative viability (NCI-H2023; first compound 20 µM) of 0.0702 and a relative viability (NCI-H2342; first compound 0.2 µM) of 0.319. It also gave a relative viability (NCI-H2342; first compound 0.6325 µM) of 0.316, a relative viability (NCI-H2342; first compound 2 µM) of 0.331 and a relative viability (NCI-H2342; first compound 6.325 µM) of 0.299. The relative viability (NCI-H2342; first compound 20 µM) was 0.418, the relative viability (NCI-H2347; first compound 0.2 µM) was 0.298 and the relative viability (NCI-H2347; first compound 0.6325 µM) was 0.284. It also gave a relative viability (NCI-H2347; first compound 2 µM) of 0.291, a relative viability (NCI-H2347; first compound 6.325 µM) of 0.339 and a relative viability (NCI-H2347; first compound 20 µM) of 0.26. It also gave a relative viability (NCI-H322M; first compound 0.2 µM) of 0.265, a relative viability (NCI-H322M; first compound 0.6325 µM) of 0.245 and a relative viability (NCI-H322M; first compound 2 µM) of 0.249. It also gave a relative viability (NCI-H322M; first compound 6.325 µM) of 0.27, a relative viability (NCI-H322M; first compound 20 µM) of 0.38 and a relative viability (NCI-H358; first compound 0.2 µM) of 0.182. It also gave a relative viability (NCI-H358; first compound 0.6325 µM) of 0.174, a relative viability (NCI-H358; first compound 2 µM) of 0.179 and a relative viability (NCI-H358; first compound 6.325 µM) of 0.173. The relative viability (NCI-H358; first compound 20 µM) was 0.126, the relative viability (NCI-H441; first compound 0.2 µM) was 0.522 and the relative viability (NCI-H441; first compound 2 µM) was 0.631. It also gave a relative viability (NCI-H441; first compound 6.325 µM) of 0.481, a relative viability (NCI-H441; first compound 20 µM) of 0.262 and a relative viability (NCI-H522; first compound 0.2 µM) of 0.788. It also gave a relative viability (NCI-H522; first compound 0.6325 µM) of 0.698, a relative viability (NCI-H522; first compound 2 µM) of 0.93 and a relative viability (NCI-H522; first compound 6.325 µM) of 0.743. For the same compound, the relative viability (NCI-H522; first compound 20 µM) was 0.585, the relative viability (NCI-H647; first compound 0.2 µM) was 0.232 and the relative viability (NCI-H647; first compound 0.6325 µM) was 0.225. For the same compound, the relative viability (NCI-H647; first compound 6.325 µM) was 0.145, the relative viability (NCI-H647; first compound 20 µM) was 0.0584 and the relative viability (NCI-H838; first compound 0.2 µM) was 0.326. It also gave a relative viability (NCI-H838; first compound 0.6325 µM) of 0.298, a relative viability (NCI-H838; first compound 6.325 µM) of 0.314 and a relative viability (NCI-H838; first compound 20 µM) of 0.218. The relative viability (RERF-LC-KJ; first compound 0.2 µM) was 0.632, the relative viability (RERF-LC-KJ; first compound 0.6325 µM) was 0.748 and the relative viability (RERF-LC-KJ; first compound 2 µM) was 0.551. For the same compound, the relative viability (RERF-LC-KJ; first compound 6.325 µM) was 0.361, the relative viability (RERF-LC-KJ; first compound 20 µM) was 0.228 and the relative viability (SW 1573; first compound 0.2 µM) was 0.557. It also gave a relative viability (SW 1573; first compound 0.6325 µM) of 0.558, a relative viability (SW 1573; first compound 2 µM) of 0.413 and a relative viability (SW 1573; first compound 6.325 µM) of 0.244. It also gave a relative viability (SW 1573; first compound 20 µM) of 0.0901, a relative viability (UMC-11; first compound 0.2 µM) of 0.474 and a relative viability (UMC-11; first compound 2 µM) of 0.532. The relative viability (UMC-11; first compound 6.325 µM) was 0.402 and the relative viability (UMC-11; first compound 20 µM) was 0.235.
